We go through 7 compounds from US9388193B2, “Dipicolylamine derivatives and their pharmaceutical uses” (National Health Research Institutes, priority 2014, dated 2016).

Structures are written as SMILES. pIC50: −log10 of the molar value. Bounds are passed on as bounds.

One data set deals with MiaPaca2 cells. Description: Cell viability MTS assay, MiaPaca2. The format is cell-based. Conditions: Homo sapiens, MIA PaCa-2, 72 hours incubation. Here is the method:
(§1) SCM-1, MiaPaca2 and Colo205 cells were grown in RPMI 1640 (Roswell Park Memorial Institute) medium (RPMI; Gibco), supplemented with 10% fetal bovine serum (FBS; Gibco). Detroit551 cells were grown in Dulbecco's modified Eagle's medium (DMEM) supplemented with 10% FBS 50 U/mL of penicillin and streptomycin, and 1% Nonessential amino acids (NEAA; Gibco).
(§2) Zn-DPA conjugates, Zn-DPA-(8), Zn-DPA-(12), Zn-DPA-(25), Zn-DPA-(26), and Zn-DPA-(42) prepared from the corresponding compounds 8, 12, 25, 26, and 42, respectively, were used to inhibit the growth of human cancer cells (SCM-1, Colo205, MiaPaca2) and human embryonic skin fibroblast cells Detroit551 following the procedures described below.
(§3) Cell viability was examined by the MTS assay (Promega, Madison, Wis., USA). More specifically, cells were grown (2500˜3000 cells/well) in a flat bottomed 96-well plate for 24 hours. A medium was added along with a test compound at a pre-determined concentration. The cells were further incubated for 72 hours. At the end of the incubation, the medium was removed and […] with 100 μl of a 3-(4,5-dimethylthiazol-2-yl)-5-(3-carboxymethoxyphenyl)-2-(4-sulfophenyl)-2H-tetrazolium/phenazine methosulfate mixture. The cells were again incubated for 1.5 hours at 37° C. in a humidified incubator with 5% CO2 to allow viable cells to convert the tetrazolium salt into formazan. The conversion was determined by measuring the absorbance at 490 nm using a BioTek PowerWave-X Absorbance Microplate Reader.
(§4) The data obtained were normalized using a vehicle (dimethyl sulfoxide, DMSO)-treated control (100% viability) and a background control (0% viability) to verify growth inhibition. The IC50 value is defined as the concentration of a compound that induces a 50% reduction in cell viability in comparison with a vehicle-treated control. These values were calculated using GraphPad Prism version 4 software (San Diego, Calif., USA).
In general terms: Formazan colour is commonly taken as a measure of viable cells.

A further data set concerns Colo205 cells. Description: Cell viability MTS assay, Colo205. The format is cell-based. Conditions: Homo sapiens, COLO 205, 72 hours incubation. The procedure: as §1, §2, §3, §4
The subject of another data set is SCM-1 cells. Description: Cell viability MTS assay, SCM-1. The format is cell-based. Conditions: Homo sapiens, 72 hours incubation. Here is the method: as §1, §2, §3, §4
Data set [1] relates to human embryonic skin fibroblast Detroit 551. Description: Cell viability MTS assay, Detroit 551. It counts as cell-based. Conditions: 72 hours incubation. The procedure:
as §1, §2, §3, §4

Data set [2] is classed as in vitro ADME. Conditions: mouse, plasma; for Stability (percentage remaining), time = 0: 0 h. The procedure:
Plasma Stability of Zn-DPA Conjugates
Zn-DPA conjugates, Zn-DPA-(8), Zn-DPA-(12), Zn-DPA-(25), Zn-DPA-(26), and Zn-DPA-(42) prepared from the corresponding compounds 8, 12, 25, 26, and 42, respectively, were incubated in mouse plasma at 37° C. for up to 24 hours to assess the stability of these conjugates.
A sample was analyzed with a High Performance Liquid Chromatography system to determine the concentration of a test conjugate at one of four time points (i.e., 0, 3 hours, 6 hours, and 24 hours). The percentages of the test conjugate remaining at 3, 6, and 24 hours after incubation in the plasma were determined. A higher percentage indicates greater stability.

The subject of the next data set is Colo205 tumors. Description: In vivo antitumor assay, Colo205 tumor xenograft mouse model. Set-up: species or system nude mice. Conditions: compared to SN-38 at 10 mg/kg and CPT-11 at 40 mg/kg. Here is the method: (§5) Two Zn-DPA conjugates, Zn-DPA-(26) and Zn-DPA-(42) were subjected to an in vivo antitumor assay against Colo205 or MiaPaca2 tumors growing in nude mice following the procedure described below.
(§6) More specifically, Colo205 or MiaPaca2 cells were cultured and maintained in a flask with a RPMI-1640 medium, which was supplemented with 10% FBS. The cells were harvested and innoculated (1×10^6 cells) subcutaneously into the left flank of a adult male nude mouse. Tumor-bearing mice were grouped at the mean tumor volume of approximately 200 mm^3. Tumor dimensions were measured with a digital caliper, and the tumor volume in mm^3 was calculated by the formula: Volume=(length×width^^2)/2.
(§7) The mice were housed in sterilized cages equipped with an air filter and sterile bedding materials at the Laboratory Animal Center of National Health Research Institutes. All mice were fed with sterilized water and chow at libitum under 12-hour light/12-hour dark cycle throughout the study.
(§8) Several dosages of Zn-DPA-(26) and Zn-DPA-(42), were used in this assay, i.e., 40 mg/kg, 20 mg/kg, and 10 mg/kg, p<0.05 vs. vehicle control by one-way ANOVA analysis and the Newman-Keuls multiple comparison test. […]

A further data set relates to MiaPaca2 tumors. Description: In vivo antitumor assay, MiaPaca2 tumor xenograft mouse model. Set-up: species or system nude mice. Conditions: i.v., 40, 20 and 10 mg/kg, compared to SN-38 at 10 mg/kg and CPT-11 at 40 mg/kg. The procedure: as §5, §6, §7, §8

Broadly, the pIC50 is −log10 of the IC50, conventionally taken in molar units. Regarding `CCc1c2c(nc3ccc(OC(=O)N4CCC(N5CCCCC5)CC4)cc13)-c1cc3c(c(=O)n1C2)COC(=O)[C@]3(O)CC` [CPT-11, reference compound], the negative-log IC50 (pIC50) in the data set on MiaPaca2 cells was 5.44; in the data set with Colo205 cells, under 5.00; with SCM-1 cells, under 5.00; in data set [1], under 5.00.
`CCc1c2c(nc3ccc(O)cc13)-c1cc3c(c(=O)n1C2)COC(=O)[C@]3(O)CC` [SN-38, reference compound]: the negative logarithm of the IC50 (pIC50) with MiaPaca2 cells is 7.70; in the data set on Colo205 cells, 6.85; with SCM-1 cells, 6.19; in data set [1] it was 5.40.
On to `CCc1c2c(nc3ccc(OC(=O)c4cccc(NC(=O)NCCCCOc5cc(CN(Cc6ccccn6)Cc6ccccn6)cc(CN(Cc6ccccn6)Cc6ccccn6)c5)c4)cc13)-c1cc3c(c(=O)n1C2)COC(=O)[C@@]3(O)CC` [Zn-DPA-(8)], for which, in data set [2], the “Stability (percentage remaining), time = 0” value was found to be 100%; the “Stability (percentage remaining), time = 3 hr” value was determined as 90%; the “Stability (percentage remaining), time = 6 hr” value came to 82%. This compound also showed a pIC50 in the data set on Colo205 cells of 6.38. Further, the pIC50 in the data set with SCM-1 cells was 6.19. In data set [1], the negative-log IC50 (pIC50) is 5.03.
`CCc1c2c(nc3ccc(OC(=O)CCSC4CC(=O)N(Cc5ccc(C(=O)NCCCCOc6cc(CN(Cc7ccccn7)Cc7ccccn7)cc(CN(Cc7ccccn7)Cc7ccccn7)c6)cc5)C4=O)cc13)-c1cc3c(c(=O)n1C2)COC(=O)[C@]3(O)CC` (stereo partly drawn) [Zn-DPA-(12)]: in data set [2], the “Stability (percentage remaining), time = 0” value is given as 100%; the “Stability (percentage remaining), time = 3 hr” value is 84%; the “Stability (percentage remaining), time = 6 hr” value was 76%. In the data set with Colo205 cells, this compound gave a pIC50 of 6.92. The same compound showed a pIC50 with SCM-1 cells of 6.03. The same compound gave a pIC50 in data set [1] of 5.54.
For `CCc1c2c(nc3ccc(OC(=O)c4ccc(CN(CCCCOc5cc(CN(Cc6ccccn6)Cc6ccccn6)cc(CN(Cc6ccccn6)Cc6ccccn6)c5)C(=O)c5c(-c6ccccc6Cl)noc5C)cc4)cc13)-c1cc3c(c(=O)n1C2)COC(=O)[C@]3(O)CC` [Zn-DPA-(25)], in data set [2], the “Stability (percentage remaining), time = 0” value turned out to be 100%; the “Stability (percentage remaining), time = 3 hr” value was 90%; the “Stability (percentage remaining), time = 6 hr” value was found to be 85%. Moreover, the pIC50 with Colo205 cells was 6.24. The same compound had a pIC50 with SCM-1 cells of 6.00. In addition, the pIC50 in data set [1] was 5.14.
`CCc1c2c(nc3ccc(OC(=O)c4ccc(CN(CCCCOc5cc(CN(Cc6ccccn6)Cc6ccccn6)cc(CN(Cc6ccccn6)Cc6ccccn6)c5)C(=O)C5(c6ccc(Cl)cc6)CCCCC5)cc4)cc13)-c1cc3c(c(=O)n1C2)COC(=O)[C@]3(O)CC` [Zn-DPA-(26)]: the negative-log IC50 (pIC50) was 6.92 in the data set on MiaPaca2 cells, 5.96 in the data set on Colo205 cells, 5.59 in the data set with SCM-1 cells and under 5.00 in data set [1]. The “Stability (percentage remaining), time = 0” value in data set [2] is on record as 100%. In addition, the “Stability (percentage remaining), time = 3 hr” value in data set [2] was 99%. Moreover, the “Stability (percentage remaining), time = 6 hr” value in data set [2] is 97%. Moreover, the antitumor activity result in the data set with Colo205 tumors (i.v., dosages of 10 mg/kg and 40 mg/kg) was “much higher antitumor activities”.
Regarding `CCc1c2c(nc3ccc(OC(=O)c4ccc(CN(CCOCCOCCNC(=O)c5ccc(CN(CCCCOc6cc(CN(Cc7ccccn7)Cc7ccccn7)cc(CN(Cc7ccccn7)Cc7ccccn7)c6)C(=O)C6(c7ccc(Cl)cc7)CCCCC6)cc5)C(=O)C5(c6ccc(Cl)cc6)CCCCC5)cc4)cc13)-c1cc3c(c(=O)n1C2)COC(=O)[C@]3(O)CC` [Zn-DPA-(42)], the antitumor activity entry in the data set on MiaPaca2 tumors is “antitumor activities in a dose-dependent manner and much higher antitumor activities”; with Colo205 tumors (i.v., 40, 20 and 10 mg/kg), “antitumor activities in a dose-dependent manner and much higher antitumor activities”. Moreover, the negative-log IC50 (pIC50) in the data set on MiaPaca2 cells is 6.26; in the data set with Colo205 cells it was 5.43; in data set [1], under 5.00. Further, the “Stability (percentage remaining), time = 0” value in data set [2] came to 100%. The “Stability (percentage remaining), time = 3 hr” value in data set [2] is 99%. Also, in data set [2], the “Stability (percentage remaining), time = 6 hr” value came to 98%.
